# Measurements as given in patent publication US20180264134A1, “A COMPOSITION OF GOLD NANOPARTICLES HAVING ANTIMICROBIAL PEPTIDES BOUND ON THEIR SURFACE FOR USE THE TREATMENT OF WOUND HEALING OR IN THE TREATMENT OF ISCHEMIC OR VASCULAR DISEASES OR IN THE TREATMENT OF SKIN DISORDERS” (priority 2015, published 2018).
# Entries after “also recorded” stand apart in the source; their conditions may differ.
# Assays:
# [1] = system: Escherichia coli (ATCC 25922); assay type: cell-based; conditions: 10^5 CFU of E. coli
# Experimental: The antimicrobial activity testing may be: Escherichia coli (ATCC 25922) was grown at 37° C. and maintained on LB plates (Luria-Bertani broth with 1.5% agar). […] Aliquots (100 μL) were taken out from the respective suspensions at 2 h intervals and diluted in PBS buffer to give 10^3 bacteria per mL and plated on LB agar plates followed by incubation at 37° C. Colonies were counted after 24 h of incubation. The collected supernatant was tested for antimicrobial activity as described above.
# HaCaT cells = test: Scratch assay in HaCaT; assay type: cell-based, human
# Experimental: Scratch Assay in HaCaT. HaCaT cells (passage 35-40) were seeded at a density of 2×10^4 cells/well in fibronectin-coated 96-well plate in DMEM supplemented with 1% (v/v) penicillin and streptomycin and 10% (v/v) FBS. After 48 h, cells were firstly starved for 15 h in DMEM with 0.5% FBS and then incubated with LL-37 (1 μg/mL), LL-37 AUNPs and AUNPs (200 μg/mL) for 5 h at 37° C. and 5% CO2. All the chemical inhibitors for FPRL1, EGFR, ADAM17 and Purinergic receptor were added into cells 1 hour before and for all the incubation time with LL37, LL37-Au NPs or AuNPs. After treatments, cells were washed twice with PBS to remove non-internalized NPs and a scratch was created with a sterile pipet tip. The detached cells were washed twice with PBS and then plates were re-coated with fibronectin (10 μg/mL in starvation medium) for 1 hour at 37° C. At this point (t=0), the first images were taken on In Cell Microscope 2000 (GE Healthcare) (objective 2×). Then cells were washed and maintained in starvation medium up to 72 h. During this time, cell migration was monitored and more images were taken up to 72 h. Scratch areas were quantified using the AxioVision software (Carl Zeiss). Wound areas were normalized by the initial area (n=8 images). On the other hand, to test the prolonged effect of LL37-Au NPs on HaCaT migration, cells were plated in fibronectin-coated 24-well plate (2×10^5 cells/well), after 48 h cells were starved for 15 h in DMEM with 0.5% FBS and then the scratch was made with a sterile pipet tip. Only after the cells were incubated with LL-37 (1 μg/mL), LL37-Au NPs and AuNPs (15 μg/mL) in starvation medium up to 96 h. During this time, cell migration was monitored and images were taken and scratch area quantified.
# In an embodiment, the NP bioactivity was carried out by scratch assay. Keratinocytes (passage 35-40) were seeded at a density of 2×10^4 cells/well in fibronectin-coated 96-well plate in DMEM supplemented with 1% (v/v) penicillin and streptomycin and 10% (v/v) FBS. After 48 h, cells were initially starved for 15 h in DMEM with 0.5% FBS, inactivated with mitomycin (5 μg/mL) for 2 h, and then incubated with LL37 (1 μg/mL), LL37-Au NPs or Au NPs (both at 200 μg/mL) for 5 h at 37° C. and 5% CO2. In case of chemical inhibition, the chemical inhibitors for FPRL1 (WRW4, Calbiochem, 10 μM), EGFR (Erlotinib HCL, OSI-744, Selleck Chemicals, 2 nM), ADAM17 (Marimastat, Sigma, 10 μM), P2X (PPADS, Sigma, 100 μM), for P2X7 (A-740003, Sigma, at a concentration of 500 nM), were added to the cells 1 h before the incubation with LL37 peptide and LL37-Au NPs and then maintained during the assay. […] After the 5 h treatment, cells were washed twice with PBS to remove non-internalized NPs and a scratch was created with a sterile pipette tip. The detached cells were washed twice with PBS and then plates were re-coated with fibronectin (10 μg/mL in starvation medium) for 1 h at 37° C. Cells were washed and maintained in starvation medium up to 72 h. Cell migration was monitored overtime by a in Cell Microscope 2000 (GE Healthcare) (objective 2×). The cells treated with LL37 peptide were cultured with starvation medium containing LL37 for the entire duration of the experiment. Scratch areas were quantified using the AxioVision software (Carl Zeiss). Wound areas were normalized by the initial area (n=6 images). In case of siRNA knock-down studies, on-target plus human ADAM17 siRNA or P2X7R siRNA (both from Dharmacon) were used to silence ADAM17 or P2X7 before performing the scratch assay. Keratinocytes were transfected with 50 nM siRNA using 0.25 μL of Lipofectamine RNAiMAX (Life Technologies) for 24 h in antibiotic-free complete medium before starting the scratch assay. […]
structure (smiles),measurement,setting,value
CC[C@H](C)[C@H](NC(=O)[C@H](CCCCN)NC(=O)[C@H](CCC(=O)O)NC(=O)[C@H](CCCCN)NC(=O)[C@H](CO)NC(=O)[C@H](CCCCN)NC(=O)[C@H](CCCNC(=N)N)NC(=O)[C@H](Cc1ccccc1)NC(=O)[C@H](Cc1ccccc1)NC(=O)[C@H](CC(=O)O)NC(=O)CNC(=O)[C@H](CC(C)C)NC(=O)[C@@H](N)CC(C)C)C(=O)NCC(=O)N[C@@H](CCCCN)C(=O)N[C@@H](CCC(=O)O)C(=O)N[C@@H](Cc1ccccc1)C(=O)N[C@@H](CCCCN)C(=O)N[C@@H](CCCNC(=N)N)C(=O)N[C@H](C(=O)N[C@H](C(=O)N[C@@H](CCC(N)=O)C(=O)N[C@@H](CCCNC(=N)N)C(=O)N[C@H](C(=O)N[C@@H](CCCCN)C(=O)N[C@@H](CC(=O)O)C(=O)N[C@@H](Cc1ccccc1)C(=O)N[C@@H](CC(C)C)C(=O)N[C@@H](CCCNC(=N)N)C(=O)N[C@@H](CC(N)=O)C(=O)N[C@@H](CC(C)C)C(=O)N[C@H](C(=O)N1CCC[C@H]1C(=O)N[C@@H](CCCNC(=N)N)C(=O)N[C@H](C(=O)N[C@@H](CCC(=O)O)C(=O)N[C@@H](CO)C(=O)N[C@@H](CS)C(N)=O)[C@@H](C)O)C(C)C)[C@@H](C)CC)C(C)C)[C@@H](C)CC [LL37],minimal inhibition concentration (MIC),[1],5 µg/mL
same,effect of P2X7 antagonist A-740003 on migration,HaCaT cells; A-740003 500 nM,inhibited; also recorded: significant decrease
same,effect of EGFR inhibitor Erlotinib on migration,HaCaT cells; Erlotinib 2 nM,decreased significantly
same,migration of keratinocytes,"HaCaT cells; LL37 1 μg/mL, NPs 200 μg/mL, listed as LL37 peptide",induced the migration; also recorded: induce the migratory properties
same,effect of ADAM inhibitor Marimastat on migration,HaCaT cells; Marimastat 10 μM,significantly decreased; also recorded: significant decrease
same,effect of purinergic antagonist PPADS on migration,HaCaT cells; PPADS 100 μM,inhibited; also recorded: significant decrease
same,effect of FPRL-1 antagonist WRW4 on migration,HaCaT cells; WRW4 10 μM,no measurable effect
same,effect of ADAM17 siRNA knockdown on migration,HaCaT cells; siRNA ADAM17,decreased the migratory properties; also recorded: reduced migratory effect
same,effect of P2X7 siRNA knockdown on migration,HaCaT cells; siRNA P2X7,inhibited; also recorded: reduced migratory effect
